From paper PMC4127532 (Journal of Medicinal Chemistry, 2014) come the findings set out here.

“Also recorded” adds a separate entry of the source.

The test system of assay [1] is A/Victoria/3/75 (H3N2, M2 WT). Kind of assay: microbe, parasite or virus in culture. The format is cell-based, influenza A.
Assay [2] has as its target A/England/195/2009 (H1N1), M2/S31 (Influenza A virus, UniProt C3W5Z0, N31S). The class given is cell-based.
Assay [3] addresses S31N M2 transmembrane domain (residues 22–46) (Influenza A virus, UniProt P0DOF5, S31N). The format is binding, influenza A (A/Udorn/307/72).

Take `NC12CC3CC(CC(C3)C1)C2` [Compound 1, amantadine]: in assay [1], the “EC50 ± SE” value was “no detectable activity; also recorded: inactive”. Moreover, in assay [1] (Influenza A virus, H3N2, MDCK), the EC50 amounted to 3000 ± 500 nM. Moreover, the “block of inward proton currents (in words)” value (shortened to “block”) in assay [2] is reported as “well blocked”.
`NC1C2CC3CC(C2)CC1C3` (stereo not shown) [Compound 3]: the “block” value in assay [2] is given as “well blocked”.
Take `CCCC1(N)C2CC3CC(C2)CC1C3` (stereo not shown) [Compound 6, 2-n-Propyltricyclo[3.3.1.1^3,7]decan-2-amine]: in assay [3], the “decrease of tilt angle of the entire TMD helix” value was 3 ° and the “helix tilt of S31N M2 TMD with drug” value is given as roughly 33 °. Besides, the “block” value in assay [2] is on record as “well blocked”.

Usually EC50 stands for the concentration needed to bring the measured effect to its halfway point.
